Patent US11472807B2, “Purine derivatives for use as medicament and for use in treating neurodegenerative or neuro-inflammatory disorders” (COMMISSARIAT À L'ENERGIE ATOMIQUE ET AUX ENERGIES …, priority 2017, dated 2022)

What was measured:
[1] = Brain and plasma exposure after chronic subcutaneous administration (Alzet osmotic pump); type: in vivo, C57Bl/6J mice; settings: C57Bl/6J, mouse, sc, 30 mg/kg, 28 days, mice, read-out: brain/plasma partition coefficient (Kpbrain/plasma)
Method: FIG. 5. Plots illustrating the effect of brain and plasma exposure after chronic subcutaneous administration of Aftin-5 to C57B16J mice. Due to short Aftin-5 elimination half-time, C57B1/6J mice were exposed subcutaneously to Aftin-5 (30 mg/kg) or vehicle (DMSO/PEG) during 28 days through an Alzet osmotic pump (pump 1004, Q=0.14 μL/hrs). Plasma was collected at different time points and 28 days after, both brain tissue and plasma were collected. Aftin-5 were extracted and quantified by LC-MS/MS (Quattro Premier). Aftin-5 concentrations in plasma (A) and brain (B) were expressed in nM. Data expressed as means+/−SEM from one experiment with n=4-5 mice/condition.
C57B1 were exposed subcutaneously to Aftin-5 using osmotic minipumps ([…]; Saint-Germain-Nuelles, France). Aftin-5 was dissolved in DMSO:propylene glycol:ethanol (45:45:10). Mice were treated with 1, 3 or 30 mg/Kg for 28 days. Filled pumps were left in saline overnight at 37° C. for priming. Mice were anesthetized with isoflurane (3-4% v/v, 1.5 mL/min) in an induction chamber and maintained under anesthesia through a mask. Mice were shaved on their back, disinfected and an incision made between the scapulae for pump implantation and finally closed with clips. 1% lidocaine gel was applied over the incision for local analgesia. Animals recovered from anesthesia in heated pads and immediately returned to the cages.

TNF-α = TNF-α mRNA in OHSC (RT-qPCR); type: cell-based, mice; settings: 50 μM, 10 days
Method: (§1) FIG. 10. Plots illustrating the effect of Aftin-5 on relative mRNA expression levels of interleukin-1-beta (IL-1β; (A)), interleukin-6 (IL-6; (B)), TNF-alpha (TNFα; (C)) and interleukin-10 (IL-10; (D)) in organotypic hippocampal slice cultures (OHSC). OHSC culture media of cortical neurons were replaced by incubation medium containing Aftin-5 (50 μM; A50) or vehicle (0.1% DMSO; Veh). 10 days later, total mRNA in lysate was isolated and purified, cDNAs were then synthesized from […] of total mRNA. cDNAs were amplified by quantitative RT-PCR and the relative expression of specific genes was normalized to the housekeeping gene HPRT1 (2^−ΔCt). Mann-Whitney tests were performed and ***p<0.001 indicates significant differences between Aftin-5 and control conditions. Data expressed as means+/−SEM from q=3 independent experiments with n=4-6 inserts/condition and 10 slices/insert. […]
(§2) The impact of Aftin-5 on gene expression of different biomarkers was determined by measuring mRNA levels of selected BDNF, CREB, PS95, INS Receptor/IGF-1 receptor, IL-1β, IL-6 in OHSC treated chronically with Aftin-5 or in a total brain from mice exposed to Aftin-5 at either 8 or 30 mg/Kg. […] Threshold cycles (Ct) of target gene and cyclophilin A (Ppia−control housekeeping gene) were recorded and gene expression was calculated as 2^−ΔΔCt(ΔΔCt=ΔCttreated−ΔCtcontrol, ΔCt=Cttarget−CtPpia). […]

[2] = system: IGF-1R (insulin growth factor receptor 1); test: IGF-1R mRNA in OHSC (RT-qPCR); type: cell-based, mice; settings: 50 μM for 10 days, P=0.0845
Method: as §1, with “12.” for “10.”, “murine insulin-like growth factor-1 receptor (IGF1-R; (A))” for “interleukin-1-beta (IL-1β; (A)), interleukin-6 (IL-6; (B)), TNF-alpha (TNFα; (C))”, “murine insulin receptor (Insr; (B))” for “interleukin-10 (IL-10; (D))”, “OHSC” for “cortical neurons”, “(2^−ΔCt)” for “(2^−ΔCt).”, “*p<0.05” for “***p<0.001”
as §2

GSK-3β = GSK-3β activity in organotypic slice cultures from transgenic mice overexpressing phosphorylated Tau; type: cell-based
Source text: Unpredictably, Aftin-5 is shown herein to efficiently promote an attenuation of the phosphorylation of Tau protein (see example 5).

Kp at 672 h [1]: ~0.44
IGF-1R mRNA [2]: tend to increase
Compound: CC[C@H](CO)Nc1nc(N(C)c2ccccc2)c2ncn(C(C)C)c2n1 [Aftin-5]
TNF-α mRNA synthesis (TNF-α): no changes
activity of GSK-3β (GSK-3β): reduces
